ChEMBL document CHEMBL3885881, “DrugMatrix”

Organism: Rattus norvegicus
Experiment: DrugMatrix - Regimen: Daily Repeat
Type: toxicity, organism-based, Sprague-Dawley
Design: regimen Daily Repeat, gender Male, age 6-8 weeks
Settings: in vivo, iv, vehicle 100 % SALINE; for ABSOLUTE BASOPHIL / ABSOLUTE EOSINOPHIL / ABSOLUTE LYMPHOCYTE / ABSOLUTE MONOCYTE / ABSOLUTE SEGMENTED NEUTROPHIL / BASOPHIL / EOSINOPHIL / ERYTHROCYTE COUNT / HEMATOCRIT / HEMOGLOBIN / LEUKOCYTE COUNT / LYMPHOCYTE / MEAN CORPUSCULAR HEMOGLOBIN / MEAN CORPUSCULAR HEMOGLOBIN CONCENTRATION / MEAN CORPUSCULAR VOLUME / MONOCYTE / NEUTROPHIL / NUCLEATED RED BLOOD CELLS: tissue Blood; for ALANINE AMINOTRANSFERASE / ALKALINE PHOSPHATASE / BLOOD UREA NITROGEN / CARBON DIOXIDE / CHOLESTEROL / CREATINE PHOSPHOKINASE / CREATININE / GLUCOSE / LACTATE DEHYDROGENASE / LIPASE / SODIUM / TOTAL BILIRUBIN / TOTAL PROTEIN / URIC ACID / ASPARTATE AMINOTRANSFERASE: tissue Plasma
[1] = 0 mg/kg, 72 h, dose level Control, time 3 day
[2] = 0 mg/kg, 120 h, dose level Control, time 5 day
[3] = 3 mg/kg, 72 h, dose level High, time 3 day

COc1cccc2c1C(=O)c1c(O)c3c(c(O)c1C2=O)C[C@@](O)(C(=O)CO)C[C@@H]3O[C@H]1C[C@H](N)[C@H](O)[C@H](C)O1 [DOXORUBICIN]
ABSOLUTE BASOPHIL [1]: 0 CELLS/uL | ABSOLUTE EOSINOPHIL [1]: 0 CELLS/uL | ABSOLUTE LYMPHOCYTE [1]: 7855.5 CELLS/uL | ABSOLUTE MONOCYTE [1]: 36.17 CELLS/uL | ABSOLUTE SEGMENTED NEUTROPHIL [1]: 575 CELLS/uL | BASOPHIL [1]: 0% | EOSINOPHIL [1]: 0% | ERYTHROCYTE COUNT [1]: 5.14 x10E6/uL | HEMATOCRIT [1]: 33.22% | HEMOGLOBIN [1]: 12.97 G/DL | LEUKOCYTE COUNT [1]: 8.47 x10E3/uL | LYMPHOCYTE [1]: 93.17% | MEAN CORPUSCULAR HEMOGLOBIN [1]: 25.28 pg | MEAN CORPUSCULAR HEMOGLOBIN CONCENTRATION [1]: 39.05 G/DL | MEAN CORPUSCULAR VOLUME [1]: 64.75 fL | MONOCYTE [1]: 0.33% | NEUTROPHIL [1]: 6.5% | NUCLEATED RED BLOOD CELLS [1]: 0 /100WBC | ALANINE AMINOTRANSFERASE [1]: 61.67 u/L | ALKALINE PHOSPHATASE [1]: 292.33 u/L | BLOOD UREA NITROGEN [1]: 11 mg/dL | CARBON DIOXIDE [1]: 34.67 mmol/L | CHOLESTEROL [1]: 71.17 mg/dL | CREATINE PHOSPHOKINASE [1]: 554.5 u/L | CREATININE [1]: 0.31 mg/dL | GLUCOSE [1]: 151 mg/dL | LACTATE DEHYDROGENASE [1]: 88.67 u/L | LIPASE [1]: 18.83 u/L | SODIUM [1]: 144.57 MEQ/L | TOTAL BILIRUBIN [1]: 0.17 mg/dL | TOTAL PROTEIN [1]: 5.8 G/DL | URIC ACID [1]: 0.52 mg/dL | ABSOLUTE BASOPHIL [2]: 0 CELLS/uL | ABSOLUTE EOSINOPHIL [2]: 53.33 CELLS/uL | ABSOLUTE LYMPHOCYTE [2]: 7739.83 CELLS/uL | ABSOLUTE MONOCYTE [2]: 74.83 CELLS/uL | ABSOLUTE SEGMENTED NEUTROPHIL [2]: 832 CELLS/uL | BASOPHIL [2]: 0% | EOSINOPHIL [2]: 0.67% | ERYTHROCYTE COUNT [2]: 5.55 x10E6/uL | HEMATOCRIT [2]: 34.77% | LEUKOCYTE COUNT [2]: 8.7 x10E3/uL | LYMPHOCYTE [2]: 89.17% | MEAN CORPUSCULAR HEMOGLOBIN [2]: 24.6 pg | MEAN CORPUSCULAR HEMOGLOBIN CONCENTRATION [2]: 39.2 G/DL | MEAN CORPUSCULAR VOLUME [2]: 62.78 fL | MONOCYTE [2]: 0.67% | NEUTROPHIL [2]: 9.5% | NUCLEATED RED BLOOD CELLS [2]: 0 /100WBC | ALANINE AMINOTRANSFERASE [2]: 50 u/L | ALKALINE PHOSPHATASE [2]: 271.17 u/L | ASPARTATE AMINOTRANSFERASE [2]: 84.17 u/L | BLOOD UREA NITROGEN [2]: 13.33 mg/dL | CARBON DIOXIDE [2]: 27 mmol/L | CHOLESTEROL [2]: 68 mg/dL | CREATINE PHOSPHOKINASE [2]: 313.67 u/L | CREATININE [2]: 0.21 mg/dL | GLUCOSE [2]: 163 mg/dL | LACTATE DEHYDROGENASE [2]: 75.67 u/L | LIPASE [2]: 11.5 u/L | SODIUM [2]: 143.1 MEQ/L | TOTAL BILIRUBIN [2]: 0.2 mg/dL | TOTAL PROTEIN [2]: 6.08 G/DL | URIC ACID [2]: 0.68 mg/dL | ABSOLUTE BASOPHIL [3]: 0 CELLS/uL | ABSOLUTE EOSINOPHIL [3]: 0 CELLS/uL | ABSOLUTE LYMPHOCYTE [3]: 2936 CELLS/uL | ABSOLUTE MONOCYTE [3]: 0 CELLS/uL | ABSOLUTE SEGMENTED NEUTROPHIL [3]: 230.67 CELLS/uL | BASOPHIL [3]: 0% | EOSINOPHIL [3]: 0% | ERYTHROCYTE COUNT [3]: 5.1 x10E6/uL | HEMATOCRIT [3]: 32.43% | HEMOGLOBIN [3]: 12.87 G/DL | LEUKOCYTE COUNT [3]: 3.17 x10E3/uL | LYMPHOCYTE [3]: 92.67% | MEAN CORPUSCULAR HEMOGLOBIN [3]: 25.23 pg | MEAN CORPUSCULAR HEMOGLOBIN CONCENTRATION [3]: 39.67 G/DL | MEAN CORPUSCULAR VOLUME [3]: 63.63 fL | MONOCYTE [3]: 0% | NEUTROPHIL [3]: 7.33% | NUCLEATED RED BLOOD CELLS [3]: 0 /100WBC | ALANINE AMINOTRANSFERASE [3]: 53.33 u/L | ALKALINE PHOSPHATASE [3]: 266 u/L | ASPARTATE AMINOTRANSFERASE [3]: 81.33 u/L | BLOOD UREA NITROGEN [3]: 16.67 mg/dL | CARBON DIOXIDE [3]: 31.33 mmol/L | CHOLESTEROL [3]: 79.33 mg/dL | CREATINE PHOSPHOKINASE [3]: 216.67 u/L | CREATININE [3]: 0.18 mg/dL | GLUCOSE [3]: 145 mg/dL | LACTATE DEHYDROGENASE [3]: 77.67 u/L | LIPASE [3]: 24 u/L | SODIUM [3]: 143.8 MEQ/L | TOTAL BILIRUBIN [3]: 0.1 mg/dL | TOTAL PROTEIN [3]: 5.87 G/DL | URIC ACID [3]: 0.5 mg/dL
